Legend:
[1] = PET with DDE (and GLD) in patients with whiplash associated disorder (WAD); format: in vivo, human; details: for increase of uptake at cervical vertebrae 2 and 3 (insertion in m. semispinalis capitis): one case
Source text: Clinically, those patients with a higher uptake of DDE in the affected joint areas seem to report high pain ratings while being in the scanner.
In a similar experiment, sixteen patients were investigated using a high resolution PET scanner.
In the […] experiments, local uptake was present in all cases in the parotis and submandibularis glandulae. Differences between patients were found in areas related to the insertion of muscles to the occipital bone, vertebrae and clavicula.

[2] = Pilot PET experiments in patients with bacterial abscesses; format: in vivo, human; details: small pilot series in patients
[3] = PET-CT with DDE in healthy subjects; format: in vivo, human; details: eight healthy subjects
Source text: In a third experiment eight healthy subjects were investigated using a PET-CT (Computerized Tomography) scanner. PET/CT combines the strengths of two well-established imaging modalities, PET for function and CT for anatomy, into a single imaging device. The subjects were free from pain in the neck and shoulder regions during at least two months and they had not been involved in accidents which could have caused a neck injury.

[4] = Frozen section autoradiography / in vitro binding on tissue slices; parameters: species or system human; details: for tracer binding in inflammatory tissues in vitro: about 20 micrometer slices, about 2 nM tracer, about 40 minutes, room temperature
Procedure: There are various hypothesis as to what biological mechanisms are behind the high uptake of DDE in inflammatory joint tissues of humans.
The in vitro binding experiments were performed on thin slices of tissue of about 20 micrometers in rats and in humans. The thin slices of tissues were adhered to gelatinized slide glasses. […] After incubation the slide glasses were washed about 3 times in a buffer, dried, and exposed on phosphor imaging plates for a minimum of 60 minutes.

[5] = PET with DDE in inflamed joints (rheumatoid arthritis patients); format: in vivo, human

Row | Structure (SMILES) | increase in uptake compared with the cerebellum, insertion of m. rectus capitis posterior major ([1]; bilaterally in 3 patients, normalized to inferior part of the cerebellum) | binding of tracer to soft tissue in the neck vertebra ([1]; four of eight WAD patients, PET) | difference in uptake between right and left side ([1]; fourth patient, no clear increase) [%] | increase of uptake at cervical vertebrae 2 and 3 (insertion in m. semispinalis capitis) [1] | patients with increased uptake in the neck and shoulder areas ([1]; sixteen patients, high resolution PET scanner) | increase of tracer uptake in bacterial abscesses [2] | increased uptake in scanned neck and shoulder regions [3] | tracer binding in inflammatory tissues in vitro [4] | binding in frozen section autoradiography ([4]; various tissues) | uptake and retention on swollen synovial tissue ([5]; inflamed synovial joints) | uptake in affected joint after intra-articular injections of glucocorticoids ([5]; observed 6-14 days after treatment) | blocking of uptake in inflamed joint by Eldepryl (MAO-B blocking) ([5]; one patient re-examined after administration of Eldepryl) | activity in inflamed tissue as seen in PET images ([5]; patients with rheumatoid arthritis) | reduction of activity in inflamed tissue ([5]; the day after intra-articular administration of glucocorticoid) [%]
1 | C#CCN([11CH3])[C@@H](C)Cc1ccccc1 [DDE, D-[methyl-^11C]-deprenyl] | 57%-127% | appeared to bind to soft tissue in the neck vertebra | 40 | approximately 70% | about 50% | no visible increase | None of the subjects revealed an increased uptake | very high | much higher binding in inflamed joints than any other tissues | very pronounced uptake and retention | significant diminishing of the uptake | no blocking effect | very high activity | 50
2 | [11CH3]Oc1ccc(-n2nnnc2C(F)(F)F)cc1CN[C@H]1CCCN[C@H]1c1ccccc1 [GLD, [^11C]-GR205171] |  |  |  | approximately 70% |  | no visible increase |  | very high |  |  |  |  |  | 

Source: patent US20110293518A1 (GE HEALTHCARE LIMITED, priority 2005, published 2011)
